Among the data in ChEMBL document CHEMBL1152180, “Novel anthraquinone derivatives: synthesis via click chemistry approach and their induction of apoptosis in BGC gastric cancer cells via reactive oxygen species (ROS)-dependent mitochondrial pathway” (Bioorg Med Chem Lett, 2008) are Activity and IC50 values, retold here.

The test system of test [1] is BGC. Briefly: Induction of apoptosis in human BGC cells assessed as loss of mitochondrial membrane potential at 10 uM by flow cytometry. The test is classed as functional, cell-based. On the technique in general: A flow cytometer gives signals particle by particle.
Test [2] in a line: Induction of apoptosis in human BGC cells assessed as early stage apoptotic cell count at 25 uM after 24 hrs using Annexin-V-FITC PI stain by flow cytometry. The test is classed as functional.
Test [3] can be described thus: Cytotoxicity against human BGC cells by MTT assay. The test is classed as functional, cell-based. On the technique in general: Tetrazolium dyes change colour on reduction, which living cells bring about.
Test [4] in a line: Induction of apoptosis in human BGC cells assessed as dead cell count at 25 uM after 24 hrs using Annexin-V-FITC PI stain by flow cytometry. It counts as functional.
The test system of test [5] is BGC. Briefly: Induction of apoptosis in human BGC cells assessed as morphological changes at 12.5 uM by Hoechst staining based laser confocal microscopy. The test is classed as functional, cell-based.
For test [6], the system named is BGC. Briefly: Induction of apoptosis in human BGC cells assessed as bursting of ROS in mitochondria at 5 uM by flow cytometry. It counts as functional, cell-based.
The nature of test [7]: Induction of apoptosis in human BGC cells assessed as accumulation at subG1 at 25 uM after 24 hrs by flow cytometry analysis. It counts as functional.
The nature of test [8]: Induction of apoptosis in human BGC cells assessed as late stage apoptotic cell count at 25 uM after 24 hrs using Annexin-V-FITC PI stain by flow cytometry. The test is classed as functional.
Test [9] deals with BGC. Kind of test: Induction of apoptosis in human BGC cells assessed as bursting of ROS in mitochondria at 5 uM in presence of N-acetyl-cysteine. It counts as functional.
The nature of test [10]: Induction of apoptosis in human BGC cells assessed as non apoptotic cell count at 25 uM after 24 hrs using Annexin-V-FITC PI stain by flow cytometry. The test is classed as functional.
In test [11] the test system is BGC. Kind of test: Induction of apoptosis in human BGC cells assessed as bursting of ROS in mitochondria at 5 uM by DCFH-DA based fluorescence scanning confocal microscopy. The test is classed as functional, cell-based.
In test [12] the test system is BGC. Kind of test: Induction of apoptosis in human BGC cells assessed as loss of mitochondrial membrane potential at 10 uM by JC-1 staining based laser confocal microscopy. It counts as functional, cell-based.

Structures are written as SMILES. Calls of active or inactive are those of the source. The calls are words filed in the database; no cut-off is given here.

In general, IC50 refers to the point on the concentration scale where inhibition reaches its midpoint. Read a high IC50 as weaker potency. With `C[N+]1(CCn2cc(COc3cccc4c3C(=O)c3cccc(OCc5cn(CC[N+]6(C)CCCCC6)nn5)c3C4=O)nn2)CCCCC1.[I-].[I-]`, the Activity entry with BGC [1] is “Dose-dependent effect”; in [2], 22.8%; in test [4], 2.1%; in the test with BGC [6], “Dose-dependent effect”; in [7], 39.4%; in [8], 1%. In addition, the Activity in [10] came to 74.2%. For the same compound, the IC50 in test [3] was 4.02 µM. Further, the outcome with BGC [5], in the test with BGC [11] and with BGC [12] was Active. Moreover, the outcome in the test with BGC [9] was inactive.
With `C[N+]1(CCn2cc(COc3cccc4c3C(=O)c3cccc(OCc5cn(CC[N+]6(C)CCCC6)nn5)c3C4=O)nn2)CCCC1`, the Activity entry in the test on BGC [1] was “Dose-dependent effect”. This compound also gave an IC50 in test [3] of 6.52 µM. In addition, the outcome with BGC [12] was Active.
The matching figures for `C[N+]1(CCCn2cc(COc3cccc4c3C(=O)c3cccc(OCc5cn(CCC[N+]6(C)CC6)nn5)c3C4=O)nn2)CC1`: “Dose-dependent effect”, 9.31 µM and “Active”.
